Data on 32 compounds can be found in article PMC7271668 (Frontiers in Pharmacology, 2020).

The Km is the concentration of substrate that gives half-maximal velocity. As a reminder, the IC50 is the point on the concentration scale where inhibition reaches its midpoint. Higher therefore signals lower potency.

Values joined by “and” are separate entries in the source; they are usually repeats but may differ in a detail not shown here. Identical values can stand only once. Like-named read-outs stand apart in the source and are kept apart here.

For one data set, the system named is OAT3. To be noted: cited from earlier work.
Data set [1] concerns the target T1, human OAT3 (Homo sapiens, UniProt Q8TCC7).
T1 sequence (Q8TCC7 1-542): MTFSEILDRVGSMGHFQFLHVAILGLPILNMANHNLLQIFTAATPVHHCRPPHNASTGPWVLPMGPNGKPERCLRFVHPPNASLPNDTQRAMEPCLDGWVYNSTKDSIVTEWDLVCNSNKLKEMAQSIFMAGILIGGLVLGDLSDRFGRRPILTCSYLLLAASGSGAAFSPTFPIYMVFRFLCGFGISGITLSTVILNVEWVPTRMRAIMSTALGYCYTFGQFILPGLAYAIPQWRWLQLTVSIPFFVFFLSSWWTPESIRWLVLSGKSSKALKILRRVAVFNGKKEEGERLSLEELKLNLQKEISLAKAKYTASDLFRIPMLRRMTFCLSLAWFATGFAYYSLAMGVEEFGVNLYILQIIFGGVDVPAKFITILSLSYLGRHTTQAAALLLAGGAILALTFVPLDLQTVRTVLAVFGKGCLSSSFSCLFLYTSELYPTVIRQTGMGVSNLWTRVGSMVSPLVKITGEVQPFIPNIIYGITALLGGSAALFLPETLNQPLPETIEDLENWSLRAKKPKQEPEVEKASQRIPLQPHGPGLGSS
Description: Inhibition of OAT3-mediated enalaprilat uptake in OAT3-transfected HEK293 cells. As to the method: Because the present study examined a number of compounds with structural diversity, a 30 min preincubation was carried out for all compounds in order to eliminate inconsistencies. […] OAT3-transfected HEK293 cells or mock cells were washed thrice with pre-warmed HBSS and preincubated with HBSS containing different concentrations of inhibitors for 30 min at 37°C.
For sample preparation before analysis, 100 μl acetonitrile containing 500 nM tolbutamide (internal standard, IS) was added as a protein-precipitating agent to 50-μl cell samples. All samples were vortexed for 2 min and centrifuged at 13,000 rpm for 10 min. Ten microliters of the supernatants were transferred into injection vials for concentration determination.
The LC-MS/MS system consisted of an API 4000 Qtrap mass spectrometer equipped with a turbo-V ionization source (Applied Biosystems, Foster City, CA, USA), two LC-20AD pumps with a CBM-20A controller, a DGU-20A solvent degasser, and a SIL-20A autosampler (Shimadzu, Columbia, MD, USA). A reverse phase C18 column (50×2.1 mm, 5 µm particle size; Agela, China) and a gradient elution at 0.3 ml/min were employed for chromatographic separation. […] Analyst 1.6.3 (AB SCIEX, USA) was used to collect and process the data.
where I was the inhibitor concentration.

The next data set deals with OAT4. Set-up: method as in Tan et al., 2017. To be noted: ref Tan et al., 2017; cited from earlier work.
In the next data set the test system is OAT1. Set-up: method as in Tan et al., 2017. To be noted: ref Tan et al., 2017; cited from earlier work.
The conditions of data set [2]: cited from earlier work.
Data set [3] concerns the target T1, human OAT3. The data set can be described thus: Enalaprilat uptake kinetics in HEK293 cells overexpressing human OAT3. Type of data set: in vitro ADME. Set-up: expressed in transfected cells; gift of Prof; Dafang Zhong, Shanghai Institute of Materia Medica. To be noted: OAT3-transfected HEK293, Supplementary Figure 1. As to the method:
Human embryonic kidney 293 (HEK293) cells stably overexpressing human OAT1, OAT3, organic cation transporter 2 (OCT2), OATP1B1, OATP1B3 or OATP2B1 as well as empty vectors were generously provided by Professor Dafang Zhong, Shanghai Institute of Materia Medica, Chinese Academy of Sciences (Shanghai, China). Respective transport activities had been validated using specific probe substrates ([Zhong et al., 2014]). All cells were grown in DMEM supplemented with 10% FBS, at 37°C with 5% CO2 and 95% humidity.
Cells were seeded in 24-well plates at a density of 200,000 cells per well and cultured in high glucose DMEM for 48 h. On the third day and prior to the start of the uptake experiment, cells were washed thrice with pre-warmed HBSS and then incubated with HBSS for 30 min at 37°C. […] Incubations were terminated 5 min after the addition of substrate by washing with ice-cold HBSS. Cells were immediately lysed with 200 μl ultrapure water by repeated freezing and thawing up to three times. Intracellular drug concentrations were determined using a liquid chromatography - tandem mass spectrometry (LC-MS/MS) method. Cellular protein levels were estimated using the Bicinchoninine acid assay per manufacturer’s instruction (Takara, Japan).
Kinetic parameters of transporter-mediated uptake were estimated by nonlinear regression analysis using GraphPad Prism 5.01 (La Jolla, CA, USA). […]

[4] abbreviates: IC50, inhibition of enalaprilat uptake by selected drugs, HEK293-OAT3, enalaprilat 30 µM, 30 min preincubation, mean ± sd of three incubations.

For the compound `O=S(=O)(O)CCS` [mesna], in the data set with OAT3 (read-out: Km as OAT3 substrate, ref Cutler et al., 2012), the Michaelis constant (Km) was 390 µM. For the compound `Cc1ccc(C)c(OCCCC(C)(C)C(=O)O)c1` [Gemfibrozil], at human OAT3 [1] (setting [4]), half-maximal inhibition (IC50) was put at 3500 ± 510 nM. As to `O=c1c(O)c(-c2ccccc2)oc2cc(O)cc(O)c12` [Galangin], at human OAT3 [1], half-maximal inhibition (IC50) required 30 ± 26 nM.

On to `CC(C)(Sc1ccncc1-c1ccc(C#N)c2ccccc12)C(=O)O` [Verinurad], for which, in the data set with OAT4, the “Affinity for OAT4, fold lower as compared to URAT1” value is “approximately 200 fold”. The IC50 at human OAT3 [1] (setting [4]) is 800 nM and < 1000 nM. The “Affinity for OAT1, fold lower as compared to URAT1” value in the data set with OAT1 was “approximately 200 fold”.

For `NNC(=O)c1ccncc1` [isoniazid], the Km with OAT3 (read-out: Km as OAT3 substrate, ref Parvez et al., 2018) was 234 µM. Regarding `COc1c(O)cc(O)c2c(=O)cc(-c3ccccc3)oc12` [Wogonin], on human OAT3 [1], the IC50 was 240 ± 40 nM.

Regarding `O=C(O)CSc1nnc(Br)n1-c1ccc(C2CC2)c2ccccc12` [Lesinurad], the IC50 at human OAT3 [1] (setting [4]) was 800 nM and < 1000 nM. Consider `O=c1cc(-c2ccc(O)cc2)oc2cc(O[C@@H]3O[C@H](CO)[C@@H](O)[C@H](O)[C@H]3O)cc(O)c12` [Apigetrin], for which the IC50 at human OAT3 [1] was 7800 ± 4030 nM. Compound `O=c1c(O)c(-c2ccc(O)c(O)c2)oc2cc(O)ccc12` [Fisetin] gave an IC50 against human OAT3 [1] of 3820 ± 1600 nM. In the case of `O=c1c(-c2ccc(O)cc2)coc2cc(O)ccc12` [Daidzein], on human OAT3 [1], half-maximal inhibition (IC50) was put at 5800 ± 3960 nM. The compound `O=c1c(O)c(-c2ccc(O)c(O)c2)oc2cc(O)cc(O)c12` [Quercetin] gave an IC50 against human OAT3 [1] of 750 ± 370 nM. Regarding `COc1c(O[C@@H]2O[C@H](C(=O)O)[C@@H](O)[C@H](O)[C@H]2O)cc(O)c2c(=O)cc(-c3ccccc3)oc12` [Wogonoside], the IC50 against human OAT3 [1] is 11700 ± 6290 nM.

`Cc1nc(-c2ccc(OCC(C)C)c(C#N)c2)sc1C(=O)O` [Febuxostat]: half-maximal inhibition against human OAT3 [1] (setting [4]) (IC50) was put at 410 ± 50 nM. Compound `O=c1c(O[C@@H]2O[C@H](CO)[C@@H](O)[C@H](O)[C@H]2O)c(-c2ccc(O)c(O)c2)oc2cc(O)cc(O)c12` [Isoquercetin] came in with an IC50 at human OAT3 [1] of 11700 ± 2060 nM.

In turn, `CCCc1nc2c(C)cc(-c3nc4ccccc4n3C)cc2n1Cc1ccc(-c2ccccc2C(=O)O)cc1` [Telmisartan] came in with an IC50 on human OAT3 [1] (setting [4]) of 860 ± 220 nM. In turn, `CC(C)=CCc1c(-c2ccc(O)cc2O)oc2c(CC=C(C)C)c(O)cc(O)c2c1=O` [Mulberrin] yielded an IC50 against human OAT3 [1] of 1220 ± 180 nM. For the compound `CCCCC(=O)N(Cc1ccc(-c2ccccc2-c2nnn[nH]2)cc1)[C@H](C(=O)O)C(C)C` [Valsartan], the IC50 against human OAT3 [1] (setting [4]) was found to be 900 ± 90 nM. With `O=c1cc(-c2ccccc2)oc2cc(O)cc(O)c12` [Chrysin], the half-inhibitory concentration (IC50) against human OAT3 [1] was found to be 44 ± 13 nM. As for `O=C1C(CC[S+]([O-])c2ccccc2)C(=O)N(c2ccccc2)N1c1ccccc1` (stereo not shown) [Sulfinpyrazone], the IC50 against human OAT3 [1] (setting [4]) came out at 950 ± 370 nM.

For `CCOc1cc(CC(=O)N[C@@H](CC(C)C)c2ccccc2N2CCCCC2)ccc1C(=O)O` [Repaglinide], on human OAT3 [1] (setting [4]), it took 2100 ± 310 nM to reach half-maximal inhibition (IC50). At human OAT3 [1], `O=c1c(O)c(-c2ccc(O)c(O)c2)oc2c(O)c(O)cc(O)c12` [Gossypetin] came in with an IC50 of 710 ± 80 nM. The compound `O=c1c(O)c(-c2cc(O)c(O)c(O)c2)oc2cc(O)cc(O)c12` [Myricetin] yielded an IC50 at human OAT3 [1] of 22600 ± 6860 nM. The compound `O=c1cc(-c2ccc(O)c(O)c2)oc2cc(O)cc(O)c12` [Luteolin] had an IC50 on human OAT3 [1] of 660 ± 110 nM. `O=C1c2c(O)cc(O)cc2OC(c2ccc(O)c(O)c2)C1O` (stereo not shown) [Taxifolin] showed an IC50 against human OAT3 [1] of 7020 ± 3370 nM. Consider `CCOC(=O)[C@H](CCc1ccccc1)N[C@@H](C)C(=O)N1CCC[C@H]1C(=O)O` [Enalapril], for which the “Plasma exposure, fold lower than that of enalaprilat” value in data set [2] (after enalapril administration, ref Li et al., 2017) is “about 4.5 fold”. Further, the “Excreted into the urine, % of the dose” value in data set [2] (after oral administration of enalapril, ref Ulm et al., 1982, MacFadyen et al., 1993) is 18 % of the dose. Further, the “Fraction of the dose converted to enalaprilat” value in data set [2] (oral enalapril, dose 10 mg, man, ref Ulm et al., 1982) is “about 40%”. Further, the “Transport by OAT3 (substrate status)” value at human OAT3 [3] was “could also be transported by OAT3”. Turning to `C=C1CC23CCC4C(C)(C(=O)OC5OC(C(=O)O)C(O)C(O)C5O)CCCC4(C)C2CCC1(O)C3` (stereo not shown) [steviol acyl glucuronide], in the data set on OAT3, the Km was 368 µM. `CCC1=C(C)CN(C(=O)NCCc2ccc(S(=O)(=O)NC(=O)N[C@H]3CC[C@H](C)CC3)cc2)C1=O` [Glimepiride] registered a concentration for half-maximal inhibition (IC50) against human OAT3 [1] (setting [4]) of 370 ± 40 nM. On to `COc1c(O)cc2oc(-c3ccccc3)cc(=O)c2c1O` [Oroxylin A], for which the IC50 at human OAT3 [1] came out at 220 ± 120 nM. For the compound `O=c1c(O)c(-c2ccc(O)cc2)oc2cc(O)cc(O)c12` [Kaempferol], at human OAT3 [1], the IC50 stood at 88 ± 14 nM. The compound `O=C1C[C@@H](c2ccc(O)c(O)c2)Oc2cc(O)cc(O)c21` [Eriodictyol] gave an IC50 at human OAT3 [1] of 1480 ± 600 nM. On to `CCc1oc2ccccc2c1C(=O)c1cc(Br)c(O)c(Br)c1` [Benzbromarone], for which the IC50 on human OAT3 [1] (setting [4]) is 140 nM and < 1000 nM.

`O=c1cc(-c2ccc(O)cc2)oc2cc(O)cc(O)c12` [Apigenin] registered an IC50 at human OAT3 [1] of 330 ± 90 nM.
